Test results from patent US10828317B2, “Method of treating bacterial infections” (priority 2016, dated 2020).
Read-outs that look alike come from different tables or passages of the source.

Assays:
[1] = system: E. coli EN001; experiment: MIC, WT (EN001 = EN0001, ATCC 25922); assay type: cell-based, Escherichia coli
[2] = system: K. pneumoniae EN0249; experiment: MIC, colistinR; assay type: cell-based; conditions: Klebsiella pneumoniae, EN0249, combination didanosine+trimethoprim+uridine, Table 20; read-out: MIC
[3] = system: E. coli EN0136; experiment: MIC, ESBL (CTX-M-2); assay type: cell-based; conditions: Escherichia coli, read-out: MIC
[4] = system: E. coli EN0137; experiment: MIC, ESBL (CTX-M-15); assay type: cell-based; conditions: Escherichia coli, EN0137, combination didanosine+trimethoprim+uridine, Table 20; read-out: MIC
[5] = system: K. pneumoniae EN0145; experiment: MIC, KPC-2; assay type: cell-based; conditions: Klebsiella pneumoniae, read-out: MIC
[6] = system: A. pittii or A. nosocomialis EN0180; experiment: MIC; assay type: cell-based, Acinetobacter pittii or nosocomialis; conditions: read-out: MIC
[7] = system: E. coli B EN0458; experiment: MIC; assay type: cell-based, Escherichia coli B; conditions: Escherichia coli, read-out: MIC
[8] = system: E. coli EN0235; experiment: microbe, parasite or virus in culture; assay type: cell-based; conditions: Escherichia coli
[9] = system: K. pneumoniae EN0144; experiment: MIC, MBL (VIM-1); assay type: cell-based; conditions: Klebsiella pneumoniae, EN0144, combination didanosine+trimethoprim+uridine, Table 20; read-out: MIC
[10] = system: P. aeruginosa EN0422; experiment: MIC; assay type: cell-based, Pseudomonas aeruginosa; conditions: Pseudomonas aeruginosa, read-out: MIC
[11] = system: Citrobacter sp. EN0465; experiment: MIC; assay type: cell-based; conditions: Citrobacter, read-out: MIC
[12] = system: M. luteus EN0455; experiment: MIC; assay type: cell-based, Micrococcus luteus; conditions: Micrococcus luteus, read-out: MIC
[13] = system: P. aeruginosa EN0460; experiment: MIC; assay type: cell-based, Pseudomonas aeruginosa; conditions: Pseudomonas aeruginosa, read-out: MIC
[14] = system: K. pneumoniae EN0140; experiment: MIC, AmpC (DHA-1); assay type: cell-based; conditions: Klebsiella pneumoniae, EN0140, combination didanosine+trimethoprim+uridine, Table 20; read-out: MIC
[15] = system: K. pneumoniae EN0244; experiment: MIC, colistinR; assay type: cell-based; conditions: Klebsiella pneumoniae, EN0244, combination didanosine+trimethoprim+uridine, Table 20; read-out: MIC
[16] = system: E. aerogenes EN0461; experiment: MIC; assay type: cell-based, Enterobacter aerogenes; conditions: Klebsiella aerogenes, read-out: MIC
[17] = system: A. baumannii EN007; experiment: MIC, WT (EN007 = EN0007); assay type: cell-based, Acinetobacter baumannii
[18] = combination AZT+trimethoprim+uridine, Table 17B

Q: O=c1ccn([C@@H]2O[C@H](CO)[C@@H](O)[C@H]2O)c(=O)[nH]1 [Uridine, uridine] was tested. Which MIC ([1]; Escherichia coli, EN001, combination FdUrd+trimethoprim+uridine, Table 8, read-out: MIC) did it give?
A: Its MIC is 13 µg/mL.

Q: What about the MIC ([1]; Escherichia coli, EN001, combination didanosine+trimethoprim+uridine, Table 10, read-out: MIC) of the same compound?
A: The MIC was 13 µg/mL.

Q: And the MIC [1, 18]?
A: Its MIC is 13 µg/mL.

Q: What about the MIC [2] of the same compound?
A: The MIC was > 400 µg/mL.

Q: And the MIC ([3]; EN0136, combination AZT+trimethoprim+uridine, Table 17B)?
A: Its MIC is 13 µg/mL.

Q: What about the MIC ([3]; EN0136, combination didanosine+trimethoprim+uridine, Table 20) of the same compound?
A: The MIC was > 400 µg/mL.

Q: And the MIC [4]?
A: The MIC was > 400 µg/mL.

Q: And the MIC ([5]; EN0145, combination FdUrd+trimethoprim+uridine, Table 19)?
A: The MIC was > 400 µg/mL.

Q: What about the MIC ([5]; EN0145, combination didanosine+trimethoprim+uridine, Table 20) of the same compound?
A: The MIC was > 400 µg/mL.

Q: And the MIC ([6]; Combination 1 AZT+trimethoprim+uridine, Table 16)?
A: The MIC was > 400 µg/mL.

Q: And the MIC ([6]; Combination 2 AZT+trimethoprim+uridine+thymidine, Table 16)?
A: The MIC was > 400 µg/mL.

Q: And the MIC ([6]; combination AZT+trimethoprim+uridine, Table 6)?
A: The MIC was > 1000 µg/mL.

Q: And the MIC ([6]; combination FdUrd+trimethoprim+uridine, Table 8)?
A: The MIC was 400 µg/mL.

Q: And the MIC ([6]; combination didanosine+trimethoprim+uridine, Table 10)?
A: The MIC was > 400 µg/mL.

Q: And the MIC ([7]; BEN0458, combination FdUrd+trimethoprim+uridine, Table 8)?
A: The MIC was 3 µg/mL.

Q: And the MIC ([7]; BEN0458, combination didanosine+trimethoprim+uridine, Table 10)?
A: The MIC was 3 µg/mL.

Q: And the MIC ([8]; EN0235, combination FdUrd+trimethoprim+uridine, Table 19)?
A: The MIC was 6 µg/mL.

Q: And the MIC ([8]; EN0235, combination didanosine+trimethoprim+uridine, Table 20)?
A: Its MIC is 13 µg/mL.

Q: What about the MIC [9] of the same compound?
A: The MIC was > 400 µg/mL.

Q: What about the MIC ([10]; EN0422, Combination 1 AZT+trimethoprim+uridine, Table 16) of the same compound?
A: Its MIC is > 400 µg/mL.

Q: What about the MIC ([10]; EN0422, Combination 2 AZT+trimethoprim+uridine+thymidine, Table 16) of the same compound?
A: The MIC was > 400 µg/mL.

Q: And the MIC ([10]; EN0422, combination AZT+trimethoprim+uridine, Table 6)?
A: The MIC was > 1000 µg/mL.

Q: What about the MIC ([10]; EN0422, combination FdUrd+trimethoprim+uridine, Table 8) of the same compound?
A: The MIC was > 400 µg/mL.

Q: And the MIC ([10]; EN0422, combination didanosine+trimethoprim+uridine, Table 10)?
A: Its MIC is > 400 µg/mL.

Q: And the MIC ([11]; SP.EN0465, Combination 1 AZT+trimethoprim+uridine, Table 16)?
A: Its MIC is > 400 µg/mL.

Q: What about the MIC ([11]; SP.EN0465, Combination 2 AZT+trimethoprim+uridine+thymidine, Table 16) of the same compound?
A: Its MIC is > 400 µg/mL.

Q: And the MIC ([11]; SP.EN0465, combination AZT+trimethoprim+uridine, Table 6)?
A: Its MIC is > 1000 µg/mL.

Q: And the MIC ([11]; SP.EN0465, combination FdUrd+trimethoprim+uridine, Table 8)?
A: Its MIC is > 400 µg/mL.

Q: What about the MIC ([11]; SP.EN0465, combination didanosine+trimethoprim+uridine, Table 10) of the same compound?
A: The MIC was > 400 µg/mL.

Q: And the MIC ([12]; EN0455, Combination 1 AZT+trimethoprim+uridine, Table 16)?
A: The MIC was 200 µg/mL.

Q: What about the MIC ([12]; EN0455, Combination 2 AZT+trimethoprim+uridine+thymidine, Table 16) of the same compound?
A: Its MIC is > 400 µg/mL.

Q: What about the MIC ([12]; EN0455, combination AZT+trimethoprim+uridine, Table 6) of the same compound?
A: The MIC was 500 µg/mL.

Q: And the MIC ([12]; EN0455, combination FdUrd+trimethoprim+uridine, Table 8)?
A: Its MIC is 200 µg/mL.

Q: And the MIC ([12]; EN0455, combination didanosine+trimethoprim+uridine, Table 10)?
A: Its MIC is 200 µg/mL.

Q: What about the MIC ([13]; EN0460, Combination 1 AZT+trimethoprim+uridine, Table 16) of the same compound?
A: Its MIC is > 400 µg/mL.

Q: What about the MIC ([13]; EN0460, Combination 2 AZT+trimethoprim+uridine+thymidine, Table 16) of the same compound?
A: Its MIC is > 400 µg/mL.

Q: What about the MIC ([13]; EN0460, combination AZT+trimethoprim+uridine, Table 6) of the same compound?
A: The MIC was > 1000 µg/mL.

Q: And the MIC ([13]; EN0460, combination FdUrd+trimethoprim+uridine, Table 8)?
A: Its MIC is > 400 µg/mL.

Q: And the MIC ([13]; EN0460, combination didanosine+trimethoprim+uridine, Table 10)?
A: Its MIC is > 400 µg/mL.

Q: What about the MIC [14] of the same compound?
A: Its MIC is > 400 µg/mL.

Q: And the MIC [15]?
A: The MIC was > 400 µg/mL.

Q: And the MIC ([16]; EN0461, Combination 2 AZT+trimethoprim+uridine+thymidine, Table 16)?
A: The MIC was 200 µg/mL.

Q: And the MIC ([16]; EN0461, combination AZT+trimethoprim+uridine, Table 6)?
A: The MIC was 60 µg/mL.

Q: What about the MIC ([17]; Acinetobacter baumannii, EN007, Combination 1 AZT+trimethoprim+uridine, Table 16, read-out: MIC) of the same compound?
A: Its MIC is > 400 µg/mL.

Q: And the MIC ([17]; Acinetobacter baumannii, EN007, Combination 2 AZT+trimethoprim+uridine+thymidine, Table 16, read-out: MIC)?
A: The MIC was > 400 µg/mL.

Q: What about the MIC ([17]; Acinetobacter baumannii, EN007, combination AZT+trimethoprim+uridine, Table 6, read-out: MIC) of the same compound?
A: Its MIC is > 1000 µg/mL.

Q: What about the MIC ([17]; Acinetobacter baumannii, EN007, combination FdUrd+trimethoprim+uridine, Table 8, read-out: MIC) of the same compound?
A: The MIC was > 400 µg/mL.

Q: And the MIC ([17]; Acinetobacter baumannii, EN007, combination didanosine+trimethoprim+uridine, Table 10, read-out: MIC)?
A: The MIC was > 400 µg/mL.

Q: What about the MIC [17, 18] of the same compound?
A: Its MIC is >400 µg/mL.

Q: What about the MIC ([17]; combination FdUrd+trimethoprim+uridine, Table 19) of the same compound?
A: Its MIC is >400 µg/mL.

Q: What about the MIC ([17]; combination didanosine+trimethoprim+uridine, Table 20) of the same compound?
A: Its MIC is >400 µg/mL.
